The record followed here is patent publication US11827622B2, “Crystalline forms of imidacloprid and methods of use thereof” (New York University, priority 2020, dated 2023).

Each structure is given as a SMILES string.

One series relates to Culex quinquefasciatus. As to the kind of experiment: Lethality (knockdown time) on contact with IMI polymorph microcrystals in petri dish, Culex mosquitoes. Format: in vivo. Conditions: Culex females; median knockdown time; 0.100 mg microcrystals per 100 mm dish. Here is the method: (§1) Lethality measurements for IMI polymorphs. Microcrystals of IMI Forms I, IV, VI, and IX were prepared by grinding respective single crystals using a mortar and pestle. Their compositions were then analyzed by powder X-ray diffraction (PXRD). Lethality measurements were performed in triplicate for each solid-state form, each accompanied by three controls (no insecticide). 2.0 mg of microcrystals was added to a 35 mm diameter polystyrene petri dish, which was subsequently shaken to disperse the microcrystals throughout the petri dish. Microcrystals was added to a polystyrene petri dish (2.000 mg microcrystals per 35 mm diameter dish for fruit flies; 0.100 mg microcrystals per 100 mm diameter dish for mosquitoes), which was subsequently shaken to disperse the microcrystals throughout the petri dish. Adult mosquitoes (Ae. aegypti, A. quadrimaculatus or C. quinquefasciatus) or fruit flies (D. melanogaster) were sedated with carbon dioxide and 30 female mosquitoes or 20 flies were transferred to each petri dish. The top of the dish was then placed over the bottom and the motion of the insects was recorded with a video camera (Sony HDR-CX455). The knockdown time was measured for each individual insect, with knockdown associated with an insect laying on the bottom surface of the petri dish in a supine position without moving from its original position after 10 seconds.
(§2) Statistical analyses. Logistic regression of knockdown-time curves was preformed to obtain the median knockdown time (KT50) of the test flies and mosquitoes, the 95% confidence intervals (CI), slopes, and standard errors (SE) using Qcal software.

Series [1] deals with Anopheles quadrimaculatus. As to the kind of experiment: Lethality (knockdown time) on contact with IMI polymorph microcrystals in petri dish, Anopheles mosquitoes. Format: in vivo. The following applies: Anopheles females; median knockdown time; 0.100 mg microcrystals per 100 mm dish. Here is the method:
as §1, §2

The format of series [2] is physicochemical. Here is the method: IMI polymorphs exposed in open air at ambient temperature are typically stable for at least 6 months. Although the polymorphic forms were distinguishable by visual inspection (from their interference colors between crossed polarizers and morphologies), their identity and any phase transformations were always corroborated by micro-Raman spectroscopy and PXRD. Form IX held at 95° C. on a microscope hot stage in air transformed to Form V in 3 min, which then converted to Form I at 110° C. in 2 min. Form I also can nucleate directly on the surface of Form IX at T>70° C. Form IX crystals confined between glass slides nucleate Form I, V or VI within Form IX at 80° C. within 1 min. […] Form VI transforms to III when they were in contact at 110° C.

The subject of the next series is Aedes aegypti. As to the kind of experiment: Lethality (knockdown time) on contact with IMI polymorph microcrystals in petri dish, Aedes mosquitoes. The format is in vivo. Conditions: for KT50 (95% CI): Aedes females, median knockdown time, 0.100 mg microcrystals per 100 mm dish. Here is the method:
as §1, §2

The subject of a further series is Drosophila melanogaster. As to the kind of experiment: Lethality (knockdown time) on contact with IMI polymorph microcrystals in petri dish, fruit flies. The format is in vivo. Conditions: for KT50 (95% CI): median knockdown time, 2.0 mg microcrystals per 35 mm dish; for times faster-acting than Form I: ratio of KT50 values. Here is the method: as §1, §2
IMI Forms IX, VI, IV were selected for lethality comparison with the commercial Form I, collectively representing a quartet spanning a wide range of free energies. […] A video camera was used to record the knockdown times—a proxy for lethality—for each insect. KT50 values, the times required for 50% of the insects to become immobile and supine, were calculated by logistic regression of knockdown-time curves (FIGS. 34A-34P). Shorter KT50 values correspond to greater lethality. Accordingly, Forms IX, VI and IV were 5.7, 2.5 and 1.8 times faster-acting than Form I.

The test system of another series is Drosophila. As to the kind of experiment: Lethality measurement of IMI vapor, Drosophila. Format: in vivo, Drosophila melanogaster. Here is the method: (§3) Crystalline insecticide was added to an opened glass vial tapped to the bottom of a petri dish, which was subsequently covered with porous polyester substrate. Female Aedes and Drosophila were sedated with carbon dioxide and were transferred onto the porous substrate. An inverted petri dish was then placed over the polyester substrate to seal the assembly. The motion of the Aedes and Drosophila was recorded with a video camera. An opened glass vial containing 2.0 mg IMI microcrystals was tapped to the bottom of the petri dish (FIGS. 35A-35E).

In another series the test system is Aedes. As to the kind of experiment: Lethality measurement of IMI vapor, Aedes. Format: in vivo, Aedes aegypti. Here is the method:
as §3

Where [3] appears, read: 2.0 mg IMI microcrystals in opened glass vial under porous polyester substrate.

Take `O=[N+]([O-])NC1=NCCN1Cc1ccc(Cl)nc1` [Form I, 1-[(6-chloro-3-pyridinyl)-methyl]-N-nitro-2-imidazolidinimine, reference compound]: the “KT50 (95% CI)” value in the series on Culex quinquefasciatus is given as 573 (568-581) min; in series [1], 524 (515-534) min; in the series on Aedes aegypti, 643 (621-664) min; in the series with Drosophila melanogaster, 562 (536-589) min. Also, the thermodynamic stability entry in series [2] was “the most thermodynamically stable crystal form”.

`O=[N+]([O-])N=C1NCCN1Cc1ccc(Cl)nc1` [Form IV, 1-[(6-chloro-3-pyridinyl)-methyl]-N-nitro-2-imidazolidinimine]: the “KT50 (95% CI)” value in the series on Culex quinquefasciatus is 311 (309-313) min; in series [1], 220 (216-224) min; with Aedes aegypti, 335 (329-342) min; in the series with Drosophila melanogaster, 321 (302-343) min. Besides, in the series on Drosophila melanogaster, the “times faster-acting than Form I” value is 1.8 times.

`O=[N+]([O-])NC1=NCCN1Cc1ccc(Cl)nc1` [Form IX, 1-[(6-chloro-3-pyridinyl)-methyl]-N-nitro-2-imidazolidinimine]: the “KT50 (95% CI)” value in the series on Culex quinquefasciatus was 89 (88-91) min; in series [1], 84 (82-86) min; in the series on Aedes aegypti it was 70 (68-71) min; in the series on Drosophila melanogaster, 99 (93-105) min. Moreover, the “kinetic stability against transformation to other polymorphs” value in series [2] is “kinetically stable against transformations to other polymorphs”. Also, in series [2] (crystals confined between glass slides, 80° C.), the “time to nucleation of Form I, V or VI within the form” value is listed as ≤ 1 min. Further, the “time of transformation to Form V” value in series [2] (held at 95° C. on microscope hot stage in air) is recorded as 3 min. Further, the “times faster-acting than Form I” value in the series on Drosophila melanogaster was found to be 5.7 times.

Regarding `O=[N+]([O-])N=C1NCCN1Cc1ccc(Cl)nc1` [Form V, 1-[(6-chloro-3-pyridinyl)-methyl]-N-nitro-2-imidazolidinimine], the “time of conversion to Form I” value in series [2] (at 110° C.) is given as 2 min.

As for `O=[N+]([O-])N=C1NCCN1Cc1ccc(Cl)nc1` [Form VI, 1-[(6-chloro-3-pyridinyl)-methyl]-N-nitro-2-imidazolidinimine], the “KT50 (95% CI)” value in the series with Culex quinquefasciatus is given as 192 (189-195) min; in series [1], 143 (141-144) min; in the series with Aedes aegypti it was 152 (147-157) min; in the series with Drosophila melanogaster, 223 (210-238) min. Also, the “times faster-acting than Form I” value in the series on Drosophila melanogaster turned out to be 2.5 times.

For the compound `O=[N+]([O-])N=C1NCCN1Cc1ccc(Cl)nc1` [IMI, 1-[(6-chloro-3-pyridinyl)-methyl]-N-nitro-2-imidazolidinimine], the “time within which all insects were knocked down” value in the series with Aedes aegypti (Aedes, direct contact with the same amount of IMI microcrystals in petri dishes) is ≤ 10 h; with Drosophila melanogaster (direct contact with the same amount of IMI microcrystals in petri dishes), ≤ 10 h. Besides, the “effect of exposure to IMI vapor” value in the series with Drosophila (setting [3]), with Drosophila (after 12 hours), in the series on Aedes (setting [3]) and with Aedes (after 12 hours) was “remained viable with no nerve firing symptoms” in each case.
